Experiments:
[1] = biological target: T1, ferroportin (Fpn) (Mus musculus, UniProt Q9JHI9); assay: Hepcidin Internalization Assay (J774); format: cell-based; details: average of multiple measurements; inhibition of TMR-hepcidin (25 nM) internalization into J774 cells; read-out: J774 IC50
T1 construct: host or cells: J774 mouse macrophage cell line, Fe(III)-NTA induced
T1 sequence (Q9JHI9 1-570): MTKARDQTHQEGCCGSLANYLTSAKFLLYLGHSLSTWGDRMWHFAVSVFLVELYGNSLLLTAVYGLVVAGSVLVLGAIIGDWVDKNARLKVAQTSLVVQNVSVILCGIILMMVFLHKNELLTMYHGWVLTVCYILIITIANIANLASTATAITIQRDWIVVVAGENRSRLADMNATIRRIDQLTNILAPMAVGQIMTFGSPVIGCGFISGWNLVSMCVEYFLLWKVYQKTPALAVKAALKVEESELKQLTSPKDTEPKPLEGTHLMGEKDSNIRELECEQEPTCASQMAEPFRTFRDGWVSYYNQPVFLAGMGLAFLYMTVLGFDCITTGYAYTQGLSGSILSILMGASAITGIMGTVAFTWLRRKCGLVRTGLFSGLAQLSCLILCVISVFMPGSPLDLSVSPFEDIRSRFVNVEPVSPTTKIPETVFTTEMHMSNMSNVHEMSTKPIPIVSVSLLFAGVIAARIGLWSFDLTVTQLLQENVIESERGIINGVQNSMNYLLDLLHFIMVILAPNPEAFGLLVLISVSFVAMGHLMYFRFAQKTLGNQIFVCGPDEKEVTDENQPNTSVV
Excerpt: This cellular assay allows quantification of the binding of hepcidin to ferroportin (Fpn) through microscopic detection of internalization of a fluorescently labeled hepcidin into J774 cells. […] Binding of hepcidin to Fpn triggers internalization and degradation of both hepcidin and Fpn. However, the TMR (6-carboxytetramethylrhodamine) fluorophore attached to hepcidin remains associated with the cell after degradation of the hepcidin peptide backbone. Therefore, microscopic detection of ceH associated TMR fluorescence is a measure of hepcidin binding to Fpn and internalization of hepcidin and Fpn. If TMR-hepcidin is prevented from binding to Fpn, cellular TMR fluorescence remains low (Dürrenberger et al, 2013). The effect of small molecular weight Fpn inhibitor compounds in this assay was evaluated in vitro as described below.
J774 cells, harvested from ca. 80% confluent cultures, were plated at 8×10^5 cells/ml in complete medium (DMEM, 10% FBS, 1% Penicillin-Streptomycin) containing 200 μM Fe(III)NTA (nitrilotriacetic acid), 100 μl per well of 96 well MicroClear plates (Greiner; Cat. 655090) and grown at 37° C. with 5% CO2. After overnight incubation, cells were washed 3 times with pre-warmed DMEM w/o phenol red, 30 μl/well of DMEM w/o phenol red was added after the final wash and 10 μl/well of dilution series of test compounds were added in triplicates. […] Cells were incubated in a total volume of 50 μl at 37° C. with 5% CO2 for 2 hours, then Hoechst 33342 dye was added to a final concentration of 0.5 μg/ml to stain nuclei and further incubated for 10 min. at 37° C. with 5% CO2. Cells were washed 3 times with PBS and fixed in 100 μl of 4% paraformaldehyde in PBS for 15 min. at room temperature. After removal of the paraformaldehyde solution, cells were washed 3 times with PBS leaving 100 μl per well and the plates were sealed with foil plate seal. TMR (530-550 nm excitation/575-625 nm emission/400 ms exposure time) and Hoechst 33342 (360-370 nm excitation/420-460 nm emission/10 ms exposure time) fluorescence images were acquired using a ScanR plate imager (Olympus) with a 20× high NA objective. Four pictures were acquired per well and fluorescence channel covering ca. 1500 cells per well. The acquired image data was analysed with the ScanR image analysis software. Image analysis included detection of nuclei (Hoechst 33342 fluorescence), identification of cell-associated regions, application of a virtual channel and thresholding for rolling-ball-type background reduction, followed by application of the Sum(Mean) algorithm to measure the TMR fluorescence associated with cells as a quantitative measure for internalized TMR-hepcidin. IC50 values were calculated with the Sum(Mean) raw data using “log(inhibitor) vs. response” curve fitting of Prism 5 software (GraphPad Software Inc., version 5.02).

[2] = biological target: T2, human Fpn (Homo sapiens, UniProt Q9NP59); assay: Biophysical Ferroportin-Hepcidin Binding Assay (fluorescence polarization); details: average of multiple measurements; 1 μM human Fpn, 20 nM TMR-hepcidin; read-out: FP IC50
T2 construct: FLAG (C); made in house; host or cells: Pichia pastoris
T2 sequence (Q9NP59 1-571): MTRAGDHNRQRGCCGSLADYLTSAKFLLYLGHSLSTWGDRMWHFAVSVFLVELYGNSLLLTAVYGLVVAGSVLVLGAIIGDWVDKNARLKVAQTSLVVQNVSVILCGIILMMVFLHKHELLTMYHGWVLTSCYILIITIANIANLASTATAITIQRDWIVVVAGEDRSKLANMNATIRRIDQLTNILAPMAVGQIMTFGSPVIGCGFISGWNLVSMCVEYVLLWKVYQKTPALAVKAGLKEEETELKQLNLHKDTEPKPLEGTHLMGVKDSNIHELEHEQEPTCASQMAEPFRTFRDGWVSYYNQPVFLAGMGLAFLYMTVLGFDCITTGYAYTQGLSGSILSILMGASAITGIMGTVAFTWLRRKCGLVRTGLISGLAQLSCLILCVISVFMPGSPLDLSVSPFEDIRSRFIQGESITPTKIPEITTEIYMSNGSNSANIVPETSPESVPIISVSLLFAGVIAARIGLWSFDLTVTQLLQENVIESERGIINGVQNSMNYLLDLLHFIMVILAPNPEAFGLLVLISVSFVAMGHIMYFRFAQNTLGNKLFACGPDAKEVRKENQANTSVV
Description: This biophysical assay was developed to confirm inhibition of hepcidin binding to ferroportin (Fpn) more directly. Incubation of TMR-hepcidin with purified human Fpn isolated from Pichia pastoris yeast cells expressing human Fpn with a C-terminal FLAG affinity tag (Bonaccorsi di Patti, 2014) leads to increased fluorescence polarization (FP) of the TMR-hepcidin ligand. Small molecular weight Fpn inhibitors were tested for inhibition of binding of TMR-hepcidin to Fpn, as detected by dose-dependent decrease of the TMR FP signal, as described in detail below.
8 μl of serial dilutions of test compounds were added in duplicates to reach final Fpn and TMR-hepcidin concentrations of 1 μM and 20 nM, respectively. Plates were incubated for 90 minutes at room temperature and parallel (S) and perpendicular (P) fluorescence was measured in a Synergy H1 fluorescence reader (BioTek). FP values were calculated in mP according to the following formula.

Row | Compound | IC50 [1] | IC50 [2]
1 | O=C(NCc1ccccc1)c1csc(CCNCc2cn3ccccc3n2)n1 [Example 34] | 360 nM | 4290 nM
2 | O=C(NCc1ncccc1F)c1cnn(CC2CCCN(Cc3nc4ccccc4[nH]3)C2)c1 (centres unmarked) [Example 153] | – | 57800 nM
3 | Cc1ccnc(CNC(=O)c2csc(CCNCc3nc4ccccc4[nH]3)n2)c1 [Example 106] | 1520 nM | 4460 nM
4 | Cc1c(C(=O)NCc2ncccc2F)ncn1CCNCCc1nc2ccccc2[nH]1 [Example 219] | 2430 nM | 1100 nM
5 | CC(C)(NC(=O)c1csc(CCNCc2nc3ccccc3[nH]2)n1)c1ccccc1 [Example 26] | 700 nM | 1120 nM
6 | O=C(NCc1ccccc1)c1ccc(CCNCc2nc3ccccc3[nH]2)cc1 [Example 66] | 410 nM | 53800 nM
7 | NC(=O)c1ccc(CNC(=O)c2csc(CCNCc3nc4ccccc4[nH]3)n2)cn1 [Example 54] | 460 nM | 11400 nM
8 | O=C(NCc1ncccc1F)c1csc([C@H]2[C@@H]3CN(CCc4nc5ccccc5[nH]4)C[C@@H]32)n1 [Example 218] | 4500 nM | 2200 nM
9 | O=C(NCc1ccccc1OC(F)(F)F)c1csc(CCNCc2nc3ccccc3[nH]2)n1 [Example 72] | 1360 nM | 931 nM
10 | O=C(NCc1ncccc1F)c1csc(CCNc2nc3ccccc3[nH]2)n1 [Example 121] | 473 nM | 5100 nM
11 | O=C(NCc1ccccc1OC(F)F)c1csc(CCNCc2nc3ccccc3[nH]2)n1 [Example 74] | 210 nM | 451 nM
12 | COc1ccc2[nH]c(CNCCc3nc(C(=O)NCc4ccccc4)cs3)nc2c1 [Example 50] | 410 nM | 1480 nM
13 | O=C(NCc1ncccc1F)c1cnn(CC2CN(CCc3nc4ccccc4[nH]3)C2)c1 [Example 192] | 13600 nM | 49300 nM
14 | O=C(NCc1ccccc1)c1csc(CCNCc2nc3cc(O)ccc3[nH]2)n1 [Example 30] | 12900 nM | 2330 nM
15 | O=C(NCc1ccccn1)c1csc(C2CCN(CCc3nc4ccccc4[nH]3)C2)n1 (centres unmarked) [Example 215] | 27700 nM | 15600 nM
16 | O=C(NCc1cccs1)c1csc(CCNCc2nc3ccccc3[nH]2)n1 [Example 16] | 900 nM | 1720 nM
17 | O=C(NCc1c(F)cccc1F)c1csc(CCNCc2nc3ccccc3[nH]2)n1 [Example 69] | 260 nM | 1510 nM
18 | O=C(CC(=O)NCc1ncccc1F)NCCNCCc1nc2ccccc2[nH]1 [compound 168] | 884 nM | 1360 nM
19 | O=C(NCc1ccc(C(F)(F)F)nc1)c1csc(CCNCc2nc3ccccc3[nH]2)n1 [Example 81] | 420 nM | 2970 nM
20 | COc1ccc(CNC(=O)c2csc(CCNCc3nc4ccccc4[nH]3)n2)nc1 [Example 45] | 440 nM | 2100 nM
21 | Cn1c(CNCCc2nc(C(=O)NCc3ccccc3)cs2)nc2ccccc21 [Example 28] | 180 nM | 1220 nM

Row | Compound | IC50 [1] | IC50 [2]
22 | O=C1N[C@@H](CCN2CCCc3nc4ccccc4n3C2)C(=O)N1CCc1ncccc1F [Example 240] | 2450 nM | 2670 nM
23 | O=C(NCc1ncccc1F)c1cnn(C2CCN(Cc3nc4ccccc4[nH]3)CC2)c1 [Example 150] | – | 73000 nM
24 | O=C(NCc1ncccc1F)c1cnn(CC2CN(Cc3nc4ccccc4[nH]3)C2)c1 [Example 187] | 87000 nM | 35500 nM
25 | O=C(NCc1cccc(=O)[nH]1)c1csc(CCNCc2nc3ccccc3[nH]2)n1 [Example 47] | 720 nM | 3420 nM
26 | O=C(NCc1ncccc1F)c1ccnc(CCNCc2nc3ccccc3[nH]2)c1 [compound 222] | 3400 nM | 808 nM
27 | O=C(NCc1cccc(N2CCCC2)c1)c1csc(CCNCc2nc3ccccc3[nH]2)n1 [Example 21] | 6700 nM | 1430 nM
28 | O=C(NCc1ccccc1)c1csc(CCNCc2ccc(F)cn2)n1 [Example 6] | 12700 nM | 48600 nM
29 | O=C(NCCc1ccccc1)c1csc(CCNCc2nc3ccccc3[nH]2)n1 [Example 78] | 410 nM | 4150 nM
30 | O=C(NCc1ccc[nH]c1=O)c1csc(CCNCc2nc3ccccc3[nH]2)n1 [Example 83] | 96 nM | 1050 nM
31 | CN1CCOCC1CNC(=O)c1csc(CCNCc2nc3ccccc3[nH]2)n1 (centres unmarked) [Example 41] | 3980 nM | 12000 nM
32 | O=C(NCc1ccccc1)c1csc(CCNCc2nc3cc(OC(F)(F)F)ccc3[nH]2)n1 [Example 62] | 930 nM | 436 nM
33 | CN(C)c1ccc(CNC(=O)c2csc(CCNCc3nc4ccccc4[nH]3)n2)cn1 [Example 98] | 1850 nM | 5710 nM
34 | O=C(NCCc1ccccn1)c1csc(CCNCc2nc3ccccc3[nH]2)n1 [Example 76] | 340 nM | 5080 nM
35 | O=C(NCc1ccccc1N1CCOCC1)c1csc(CCNCc2nc3ccccc3[nH]2)n1 [Example 63] | 610 nM | 846 nM
36 | O=C(NCc1ncccc1F)c1csc(CNCCCc2nc3ccccc3[nH]2)n1 [Example 119] | 164 nM | 5300 nM
37 | O=C(NCc1ccccc1)c1csc(CCNCc2ccccn2)n1 [Example 11] | 20900 nM | 7830 nM
38 | Cc1cnc(CNC(=O)c2nc(CCNCc3nc4ccccc4[nH]3)sc2Cl)nc1 [Example 178] | 3640 nM | 1920 nM
39 | O=C(NCc1ncccc1F)c1csc(CCNCCCc2nc3ccccc3[nH]2)n1 [Example 125] | 1660 nM | 3700 nM
40 | O=C(NCc1ncc[nH]1)c1csc(CCNCc2nc3ccccc3[nH]2)n1 [Example 95] | 7230 nM | 13000 nM
41 | O=C(NCc1ncccc1F)c1cccc(CCNCCc2nc3c(F)cccc3[nH]2)c1 [Example 241] | 2100 nM | 1650 nM

Source: patent publication US10738041B2, “Ferroportin inhibitors” (Vifor (International) AG, priority 2015, dated 2020)
